The record followed here is ChEMBL document CHEMBL5465560, “Selectivity Literature for EUbOPEN Chemogenomic Library” (2024).

Test [1] addresses Receptor-type tyrosine-protein kinase FLT3 (Homo sapiens) (UniProt P36888). Briefly: Selectivity interaction (KinomeScan (DiscoverX)) EUB0000695a FLT3. The note with it: at 100 nM.
The target in test [2] is Serine/threonine-protein kinase 10 (Homo sapiens) (UniProt O94804). Briefly: Selectivity interaction (ActivX KiNativ screen (kinase selectivity in THP-1 cell lysates)) EUB0000639a STK10. In kind it is subcellular. The note with it: lysate, at 0.2 µM.
Chain of Serine/threonine-protein kinase 10 (Homo sapiens) (O94804 whole entry, looked up): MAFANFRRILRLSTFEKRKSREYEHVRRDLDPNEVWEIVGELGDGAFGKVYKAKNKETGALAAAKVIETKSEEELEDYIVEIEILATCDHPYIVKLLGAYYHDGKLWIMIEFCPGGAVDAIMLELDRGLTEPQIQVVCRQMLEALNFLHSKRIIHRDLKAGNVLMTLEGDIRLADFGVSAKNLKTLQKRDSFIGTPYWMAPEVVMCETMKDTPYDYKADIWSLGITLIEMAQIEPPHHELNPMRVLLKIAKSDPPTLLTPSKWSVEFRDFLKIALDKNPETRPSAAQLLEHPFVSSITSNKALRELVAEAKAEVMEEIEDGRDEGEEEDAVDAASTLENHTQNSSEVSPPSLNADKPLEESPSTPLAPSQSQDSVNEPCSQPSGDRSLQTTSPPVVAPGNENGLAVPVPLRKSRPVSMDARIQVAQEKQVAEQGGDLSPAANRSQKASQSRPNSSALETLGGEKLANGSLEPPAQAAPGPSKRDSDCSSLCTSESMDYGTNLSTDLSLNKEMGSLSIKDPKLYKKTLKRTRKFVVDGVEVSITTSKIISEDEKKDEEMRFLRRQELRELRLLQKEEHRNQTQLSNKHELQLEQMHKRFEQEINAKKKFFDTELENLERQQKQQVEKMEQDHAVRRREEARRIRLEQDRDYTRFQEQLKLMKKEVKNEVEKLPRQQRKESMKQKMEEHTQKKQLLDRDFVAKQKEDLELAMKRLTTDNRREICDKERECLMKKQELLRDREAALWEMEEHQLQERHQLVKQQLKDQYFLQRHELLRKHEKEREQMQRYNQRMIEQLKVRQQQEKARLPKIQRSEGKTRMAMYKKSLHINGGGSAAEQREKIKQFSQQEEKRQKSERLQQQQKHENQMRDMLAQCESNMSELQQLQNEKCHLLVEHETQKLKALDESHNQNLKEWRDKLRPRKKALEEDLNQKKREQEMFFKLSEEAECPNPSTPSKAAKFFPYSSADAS
Test [3] has as its target Ribosomal protein S6 kinase alpha-2 (Homo sapiens) (UniProt Q15349). Briefly: Selectivity interaction (ActivX KiNativ screen (kinase selectivity in THP-1 cell lysates)) EUB0000639a RPS6KA2. In kind it is subcellular. As to conditions: lysate, at 1 µM.
Test [4] deals with T1, Serine/threonine-protein kinase ULK1 (Homo sapiens) (UniProt O75385).
T1 sequence (whole entry): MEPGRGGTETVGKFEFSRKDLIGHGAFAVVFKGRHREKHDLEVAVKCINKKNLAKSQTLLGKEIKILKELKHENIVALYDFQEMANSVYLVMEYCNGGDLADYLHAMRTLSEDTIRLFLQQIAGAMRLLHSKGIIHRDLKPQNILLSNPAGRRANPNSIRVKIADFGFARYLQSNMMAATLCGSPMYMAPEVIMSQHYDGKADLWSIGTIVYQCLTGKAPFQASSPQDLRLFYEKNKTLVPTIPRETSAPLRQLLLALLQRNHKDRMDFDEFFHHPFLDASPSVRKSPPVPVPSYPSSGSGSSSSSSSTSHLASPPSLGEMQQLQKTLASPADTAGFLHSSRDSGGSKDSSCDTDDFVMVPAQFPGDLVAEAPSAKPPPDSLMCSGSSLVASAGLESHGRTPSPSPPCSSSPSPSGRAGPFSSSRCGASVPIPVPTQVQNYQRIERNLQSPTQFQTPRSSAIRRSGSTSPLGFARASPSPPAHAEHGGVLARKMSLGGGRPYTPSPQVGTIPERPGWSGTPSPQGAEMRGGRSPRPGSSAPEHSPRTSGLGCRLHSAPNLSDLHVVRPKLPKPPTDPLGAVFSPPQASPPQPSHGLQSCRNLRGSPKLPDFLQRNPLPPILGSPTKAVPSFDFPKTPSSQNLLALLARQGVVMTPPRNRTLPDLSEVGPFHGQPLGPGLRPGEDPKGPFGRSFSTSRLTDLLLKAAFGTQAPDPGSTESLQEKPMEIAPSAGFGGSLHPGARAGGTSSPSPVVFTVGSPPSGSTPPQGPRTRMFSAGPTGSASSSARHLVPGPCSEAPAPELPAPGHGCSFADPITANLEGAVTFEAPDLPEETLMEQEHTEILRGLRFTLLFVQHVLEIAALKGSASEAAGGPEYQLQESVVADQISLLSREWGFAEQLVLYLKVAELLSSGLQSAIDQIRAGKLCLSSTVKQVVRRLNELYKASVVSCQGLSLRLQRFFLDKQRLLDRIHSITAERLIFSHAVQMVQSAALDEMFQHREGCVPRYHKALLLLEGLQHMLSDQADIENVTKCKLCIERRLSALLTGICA
Briefly: Selectivity interaction (Kinase panel (DSF assay)) EUB0001559a ULK1. In general terms: In DSF a fluorescence change marks the thermal transition of the protein.

Test [5] has as its target T2, Mitogen-activated protein kinase kinase kinase kinase 3 (Homo sapiens) (UniProt Q8IVH8).
T2 sequence (whole entry): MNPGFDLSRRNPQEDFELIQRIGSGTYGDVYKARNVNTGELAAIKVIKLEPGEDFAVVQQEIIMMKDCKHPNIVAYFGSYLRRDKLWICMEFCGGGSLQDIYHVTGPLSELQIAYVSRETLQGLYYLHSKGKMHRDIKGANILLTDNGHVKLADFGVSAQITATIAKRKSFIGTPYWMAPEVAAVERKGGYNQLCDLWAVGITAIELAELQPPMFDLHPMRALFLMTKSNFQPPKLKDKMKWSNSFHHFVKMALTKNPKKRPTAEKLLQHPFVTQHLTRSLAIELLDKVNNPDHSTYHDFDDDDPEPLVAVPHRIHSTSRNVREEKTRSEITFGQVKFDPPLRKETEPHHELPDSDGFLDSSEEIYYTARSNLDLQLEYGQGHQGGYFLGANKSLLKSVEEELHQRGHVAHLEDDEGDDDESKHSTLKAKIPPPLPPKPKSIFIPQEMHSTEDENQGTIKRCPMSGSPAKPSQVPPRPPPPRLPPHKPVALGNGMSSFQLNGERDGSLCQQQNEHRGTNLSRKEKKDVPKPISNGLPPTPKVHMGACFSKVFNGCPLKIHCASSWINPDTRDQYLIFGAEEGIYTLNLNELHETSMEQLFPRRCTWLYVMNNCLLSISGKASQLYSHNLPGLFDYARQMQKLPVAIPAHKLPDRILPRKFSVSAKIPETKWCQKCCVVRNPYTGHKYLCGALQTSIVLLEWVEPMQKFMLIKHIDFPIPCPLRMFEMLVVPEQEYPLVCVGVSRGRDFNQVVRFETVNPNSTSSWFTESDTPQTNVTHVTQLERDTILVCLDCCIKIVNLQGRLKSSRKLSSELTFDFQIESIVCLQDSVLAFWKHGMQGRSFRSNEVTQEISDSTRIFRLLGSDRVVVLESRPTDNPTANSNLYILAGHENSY
Briefly: Selectivity interaction (Ambit KINOMEscan and KiNATiv profiling in Jurkat cells) EUB0000090b MAP4K3. The class given is cell-based. The note with it: at 1 µM.

Test [6] deals with Serine/threonine-protein kinase B-raf (Homo sapiens), P15056 [V600E]. Briefly: Selectivity interaction (KinomeScan (DiscoverX)) EUB0001049a BRAF. The note with it: at 1 µM.
Chain of Serine/threonine-protein kinase B-raf (Homo sapiens), P15056 [V600E] (P15056 whole entry V600E): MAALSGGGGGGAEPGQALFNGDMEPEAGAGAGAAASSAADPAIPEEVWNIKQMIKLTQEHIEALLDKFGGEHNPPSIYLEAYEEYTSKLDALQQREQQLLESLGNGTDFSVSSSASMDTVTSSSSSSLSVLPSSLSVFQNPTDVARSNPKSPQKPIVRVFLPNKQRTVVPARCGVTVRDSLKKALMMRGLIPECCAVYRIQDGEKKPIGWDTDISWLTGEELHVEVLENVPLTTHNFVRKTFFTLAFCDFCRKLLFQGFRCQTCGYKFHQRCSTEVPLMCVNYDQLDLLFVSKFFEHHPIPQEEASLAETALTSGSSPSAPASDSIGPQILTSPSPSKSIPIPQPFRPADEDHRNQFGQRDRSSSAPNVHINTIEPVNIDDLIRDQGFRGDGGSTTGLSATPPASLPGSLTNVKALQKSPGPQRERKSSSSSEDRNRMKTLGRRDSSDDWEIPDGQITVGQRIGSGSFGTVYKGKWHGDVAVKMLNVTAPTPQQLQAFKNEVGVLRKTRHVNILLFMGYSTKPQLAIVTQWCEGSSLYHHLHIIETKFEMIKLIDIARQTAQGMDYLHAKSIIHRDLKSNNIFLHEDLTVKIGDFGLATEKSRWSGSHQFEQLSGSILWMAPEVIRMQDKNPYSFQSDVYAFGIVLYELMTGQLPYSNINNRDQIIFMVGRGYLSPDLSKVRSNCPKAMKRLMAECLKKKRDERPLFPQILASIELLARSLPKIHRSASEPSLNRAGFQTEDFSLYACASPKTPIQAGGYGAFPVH
For test [7], the target named is T3, Testis-specific serine/threonine-protein kinase 1 (Homo sapiens) (UniProt Q9BXA7).
T3 sequence (whole entry): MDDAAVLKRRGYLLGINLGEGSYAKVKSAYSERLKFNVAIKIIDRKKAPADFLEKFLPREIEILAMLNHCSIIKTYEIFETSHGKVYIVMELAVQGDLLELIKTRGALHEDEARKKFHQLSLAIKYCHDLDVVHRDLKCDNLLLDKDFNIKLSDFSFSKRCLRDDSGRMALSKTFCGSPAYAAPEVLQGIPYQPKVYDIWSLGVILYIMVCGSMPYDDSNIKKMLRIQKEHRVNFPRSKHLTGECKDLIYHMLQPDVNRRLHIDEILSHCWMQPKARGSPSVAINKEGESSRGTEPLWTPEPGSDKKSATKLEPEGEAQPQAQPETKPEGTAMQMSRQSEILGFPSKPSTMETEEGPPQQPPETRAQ
Put plainly: Selectivity interaction (KinomeScan (DiscoverX)) EUB0000618a TSSK1A. The note with it: at 10 µM.

The target in test [8] is cGMP-inhibited 3',5'-cyclic phosphodiesterase 3A (Homo sapiens, UniProt Q14432). Briefly: Selectivity interaction (Panel of non-epigenetic targets (kinases, GPCRs, ion channels, and transporters, Eurofins) ) EUB0000271b PDE3A. As to conditions: at 1 µM.
Test [9] addresses Tyrosine-protein kinase ABL1 (Homo sapiens, UniProt P00519). Briefly: Selectivity interaction (Kinase panel (KiNativ target engagement assay in Jurkat cells)) EUB0001635a ABL1. The class given is cell-based. As to conditions: Selectivity number of off-targets 0.0, Selectivity number of targets 233.0, Source Knowledge https://www.sciencedirect.com/science/article/pii/S2451945619300674?via%3Dihub, at 1 µM.

Chain of Receptor-type tyrosine-protein kinase FLT3 (Homo sapiens) (P36888 whole entry): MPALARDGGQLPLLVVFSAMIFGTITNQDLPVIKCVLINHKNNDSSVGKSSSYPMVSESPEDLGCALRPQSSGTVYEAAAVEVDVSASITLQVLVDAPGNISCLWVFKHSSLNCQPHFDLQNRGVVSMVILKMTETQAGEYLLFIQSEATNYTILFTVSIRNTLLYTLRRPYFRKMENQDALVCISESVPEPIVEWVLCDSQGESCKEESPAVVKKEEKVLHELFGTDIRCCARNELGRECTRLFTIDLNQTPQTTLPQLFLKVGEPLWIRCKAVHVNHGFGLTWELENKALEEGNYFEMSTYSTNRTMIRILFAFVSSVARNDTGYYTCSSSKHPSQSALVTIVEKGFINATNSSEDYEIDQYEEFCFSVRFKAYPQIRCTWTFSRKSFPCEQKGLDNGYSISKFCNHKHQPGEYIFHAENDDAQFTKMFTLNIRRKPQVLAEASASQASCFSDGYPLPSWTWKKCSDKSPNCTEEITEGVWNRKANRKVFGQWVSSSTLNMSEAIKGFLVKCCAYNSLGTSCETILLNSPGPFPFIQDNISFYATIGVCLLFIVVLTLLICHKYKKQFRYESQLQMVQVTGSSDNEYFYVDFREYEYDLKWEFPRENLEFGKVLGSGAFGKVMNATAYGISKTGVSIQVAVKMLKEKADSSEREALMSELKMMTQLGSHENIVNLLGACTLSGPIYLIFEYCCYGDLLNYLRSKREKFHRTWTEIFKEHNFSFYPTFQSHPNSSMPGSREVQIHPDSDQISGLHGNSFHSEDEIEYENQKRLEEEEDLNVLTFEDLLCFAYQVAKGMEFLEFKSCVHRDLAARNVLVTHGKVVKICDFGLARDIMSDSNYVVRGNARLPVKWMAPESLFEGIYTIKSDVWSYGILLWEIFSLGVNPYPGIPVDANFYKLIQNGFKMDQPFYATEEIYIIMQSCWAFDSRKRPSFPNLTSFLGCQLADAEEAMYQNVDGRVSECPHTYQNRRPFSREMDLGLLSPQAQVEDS
Chain of Tyrosine-protein kinase ABL1 (P00519 whole entry): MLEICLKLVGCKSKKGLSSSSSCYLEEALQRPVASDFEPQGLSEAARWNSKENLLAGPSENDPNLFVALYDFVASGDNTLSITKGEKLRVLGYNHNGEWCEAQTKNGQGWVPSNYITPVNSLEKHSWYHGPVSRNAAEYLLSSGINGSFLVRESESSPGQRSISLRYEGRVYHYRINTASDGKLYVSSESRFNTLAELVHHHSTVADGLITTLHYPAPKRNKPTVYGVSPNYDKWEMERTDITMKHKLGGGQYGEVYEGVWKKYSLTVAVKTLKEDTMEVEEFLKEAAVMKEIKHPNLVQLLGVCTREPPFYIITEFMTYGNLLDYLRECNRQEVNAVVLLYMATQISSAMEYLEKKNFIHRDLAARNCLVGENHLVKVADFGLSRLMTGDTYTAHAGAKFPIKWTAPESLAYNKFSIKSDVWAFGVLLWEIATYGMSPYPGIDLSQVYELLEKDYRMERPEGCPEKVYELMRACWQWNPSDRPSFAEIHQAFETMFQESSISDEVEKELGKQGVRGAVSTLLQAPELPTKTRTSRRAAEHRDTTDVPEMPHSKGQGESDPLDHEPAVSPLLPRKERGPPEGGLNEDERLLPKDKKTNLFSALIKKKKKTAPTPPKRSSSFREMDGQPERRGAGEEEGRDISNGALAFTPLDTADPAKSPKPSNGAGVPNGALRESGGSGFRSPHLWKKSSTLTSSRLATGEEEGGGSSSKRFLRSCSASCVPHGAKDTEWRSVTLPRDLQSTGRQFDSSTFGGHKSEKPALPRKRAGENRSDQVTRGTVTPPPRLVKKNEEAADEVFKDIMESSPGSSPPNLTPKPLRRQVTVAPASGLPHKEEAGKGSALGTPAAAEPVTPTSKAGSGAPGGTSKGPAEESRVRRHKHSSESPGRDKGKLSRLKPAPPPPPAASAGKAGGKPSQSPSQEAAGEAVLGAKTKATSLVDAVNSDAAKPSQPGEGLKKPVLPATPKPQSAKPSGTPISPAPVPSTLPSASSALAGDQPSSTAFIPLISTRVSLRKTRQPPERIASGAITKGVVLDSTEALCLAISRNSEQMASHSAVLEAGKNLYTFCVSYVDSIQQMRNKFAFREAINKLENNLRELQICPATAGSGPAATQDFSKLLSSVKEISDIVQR
Chain of Ribosomal protein S6 kinase alpha-2 (Homo sapiens) (Q15349 whole entry): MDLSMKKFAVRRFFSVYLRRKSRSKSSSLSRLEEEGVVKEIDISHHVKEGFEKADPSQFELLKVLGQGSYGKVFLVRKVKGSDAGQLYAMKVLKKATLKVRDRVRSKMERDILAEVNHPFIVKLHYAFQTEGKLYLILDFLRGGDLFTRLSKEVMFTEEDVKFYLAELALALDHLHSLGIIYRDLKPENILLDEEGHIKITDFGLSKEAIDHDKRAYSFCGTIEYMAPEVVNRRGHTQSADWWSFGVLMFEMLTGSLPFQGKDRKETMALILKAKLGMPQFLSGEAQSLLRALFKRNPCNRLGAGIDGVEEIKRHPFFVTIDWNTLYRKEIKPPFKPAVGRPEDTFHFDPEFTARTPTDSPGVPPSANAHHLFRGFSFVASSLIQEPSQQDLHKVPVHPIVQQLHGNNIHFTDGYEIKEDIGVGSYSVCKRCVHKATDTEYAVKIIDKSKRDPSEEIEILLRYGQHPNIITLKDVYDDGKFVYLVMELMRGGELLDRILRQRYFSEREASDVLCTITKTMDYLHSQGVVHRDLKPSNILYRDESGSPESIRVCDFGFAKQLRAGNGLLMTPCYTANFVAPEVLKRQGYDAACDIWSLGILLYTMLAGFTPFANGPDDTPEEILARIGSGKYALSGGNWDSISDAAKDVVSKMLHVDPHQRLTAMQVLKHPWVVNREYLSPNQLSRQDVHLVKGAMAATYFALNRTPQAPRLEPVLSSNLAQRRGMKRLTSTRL

Regarding `Cc1cc(F)c(C(=O)Nc2cccc(-c3nncn3C(C)C)n2)cc1-n1cnc(C2CC2)c1`, in test [1], the % of control worked out at 100%.
As to `CC[C@@H]1[C@H](F)C(=O)N[C@@H]1COc1nccc2cc(C(N)=O)c(OC)cc12` [ZIMLOVISERTIB], the values for the % of inhibition in test [2] and in test [3] were -43.2% and 8%, respectively.
With `CN(C(=O)c1cnn2cccnc12)c1cc2c(cc1N1CCOCC1)C(=O)N(C[C@@H](F)C(C)(C)O)C2`, the dTM in test [4] is -1 K.
Turning to `CN(C)C/C=C/C(=O)Nc1ccc(C(=O)N2CCCC(Nc3ncc(Cl)c(-c4c[nH]c5ccccc45)n3)C2)cc1` (centres undefined), the % of control in [5] is 95%.
With `COc1cc(Nc2nc(C)cc(-c3cnn4nc(OC)ccc34)n2)cc(C(F)(F)F)c1`, the % of control in test [6] was found to be 100%.
`O[C@H]1CC[C@H](Nc2ncc3nc(Nc4c(F)cc(F)cc4F)n([C@H]4CCOC4)c3n2)CC1` came in with a % of control in [7] of 100%.
As to `Cc1cc(C)cc([C@@H]2c3cc(C)ccc3NC(=O)CN2C(=O)c2ccc(Br)s2)c1`, the % of inhibition in [8] was -11%.
As to `C=CC(=O)Nc1ccc(C(=O)Nc2[nH]nc3c2CN(C(=O)N[C@H](CN(C)C)c2ccccc2)C3(C)C)cc1`, the % of engagement in test [9] is -19.4%.
